Experimental data published in the supplement of paper PMC10307832.

Columns and labels:
Assay in all cases: relative viability (nuclei count vs DMSO), 5 days (fraction); higher = more cells survive
[1] = compound: CC1=CC=C(C=C1)C(=O)CN2C3=C(CCCC3)SC2=N [Pifithrin_alpha] + C[C@@H](Oc1cc(-c2cnn(C3CCNCC3)c2)cnc1N)c1c(Cl)ccc(F)c1Cl [Crizotinib] (partner 1 µM)
Outline: (§1)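 One day after seeding in 1536-well plates, lung cancer cell lines were dosed by pin tool. Dosing was either single-drug or a fixed anchor-drug dose plus five library-drug doses (not always all listed) in √10 steps. After 5 days, nuclei were stained in one fix-and-stain step and counted on 4× images, and relative viability is the nuclei count of treated wells over that of vehicle wells, given as the median of duplicate plates.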

[2] = compound: CC1=CC=C(C=C1)C(=O)CN2C3=C(CCCC3)SC2=N [Pifithrin_alpha] + O=C(CCCCCCC(=O)Nc1ccccc1)NO [Vorinostat] (partner 1 µM)
Outline: as §1

Bemcentinib + Navitoclax = compound: Nc1nc(Nc2ccc3c(c2)CC[C@@H](N2CCCC2)CC3)nn1-c1cc2c(nn1)-c1ccccc1CCC2 [Bemcentinib] + CC1(C)CCC(c2ccc(Cl)cc2)=C(CN2CCN(c3ccc(C(=O)NS(=O)(=O)c4ccc(N[C@H](CCN5CCOCC5)CSc5ccccc5)c(S(=O)(=O)C(F)(F)F)c4)cc3)CC2)C1 [Navitoclax] (partner 0.5 µM)
Outline: as §1

Bemcentinib + Olaparib = compound: Nc1nc(Nc2ccc3c(c2)CC[C@@H](N2CCCC2)CC3)nn1-c1cc2c(nn1)-c1ccccc1CCC2 [Bemcentinib] + O=C(c1cc(Cc2n[nH]c(=O)c3ccccc23)ccc1F)N1CCN(C(=O)C2CC2)CC1 [Olaparib] (partner 8 µM)
Outline: as §1

Cell Line | relative viability ([1]; first compound 1 µM) | relative viability ([1]; first compound 3.162 µM) | relative viability ([1]; first compound 10 µM) | relative viability ([1]; first compound 31.62 µM) | relative viability ([1]; first compound 100 µM) | relative viability ([2]; first compound 1 µM) | relative viability ([2]; first compound 3.162 µM) | relative viability ([2]; first compound 10 µM) | relative viability ([2]; first compound 31.62 µM) | relative viability ([2]; first compound 100 µM) | relative viability (Bemcentinib + Navitoclax; first compound 0.04 µM) | relative viability (Bemcentinib + Navitoclax; first compound 0.1265 µM) | relative viability (Bemcentinib + Navitoclax; first compound 0.4 µM) | relative viability (Bemcentinib + Navitoclax; first compound 1.265 µM) | relative viability (Bemcentinib + Navitoclax; first compound 4 µM) | relative viability (Bemcentinib + Olaparib; first compound 0.04 µM) | relative viability (Bemcentinib + Olaparib; first compound 0.1265 µM) | relative viability (Bemcentinib + Olaparib; first compound 0.4 µM) | relative viability (Bemcentinib + Olaparib; first compound 1.265 µM) | relative viability (Bemcentinib + Olaparib; first compound 4 µM)
SK-MES-1 | 0.934 | 0.933 | 0.976 | 0.683 | 0.765 | 1.01 | 0.95 | 0.959 | 0.591 | 0.852 | 1.25 | 1.22 | 1.36 | 1.49 | 1.47 | 0.833 | 0.771 | 0.734 | 0.823 | 0.682
NCI-H1648 | – | – | – | – | – | 0.523 | 0.473 | 0.378 | 0.347 | 0.421 | – | – | – | – | – | 1.3 | 0.925 | 0.746 | 0.777 | 0.695
PC-3 [JPC-3] | 0.98 | 0.998 | 0.884 | 0.814 | 0.849 | – | 0.61 | – | 0.609 | 0.639 | 0.803 | 0.827 | 0.865 | 0.848 | 0.826 | 1.08 | 1.15 | 1.17 | 1.11 | 1.06
NCI-H1666 | 0.665 | 0.63 | 0.549 | 0.474 | 0.316 | 0.96 | 0.962 | 0.723 | 0.771 | 0.793 | 0.864 | 0.942 | 1.01 | 0.866 | 1.03 | 0.742 | 0.887 | 0.731 | 0.713 | 0.713
IA-LM | 0.652 | 0.622 | 0.705 | 0.463 | 0.433 | – | 1.16 | – | 0.913 | 0.907 | 0.748 | 0.988 | 0.975 | 0.841 | 0.725 | 0.799 | 0.913 | 0.885 | 0.859 | 0.89
HCC-78 | 0.319 | 0.289 | 0.321 | – | 0.321 | – | 0.506 | 0.519 | 0.407 | 0.467 | 0.657 | 0.792 | 0.859 | 0.943 | 0.836 | 0.919 | 0.794 | 0.971 | 0.808 | 0.833
HCC-366 | 0.812 | 0.517 | 0.418 | – | 0.198 | 0.252 | 0.204 | 0.171 | – | 0.209 | 1.11 | 1.23 | 1.11 | 1.07 | 1.03 | 0.421 | 0.35 | 0.415 | 0.387 | 0.353
NCI-H520 | 1.19 | 0.805 | 0.731 | 0.509 | 0.833 | 0.641 | 0.954 | 0.716 | 0.678 | 0.772 | 1.19 | 1.19 | 1.42 | 1.11 | 1.07 | 0.394 | 0.335 | 0.343 | 0.387 | 0.415
NCI-H1355 | 0.995 | 0.734 | 0.62 | 0.619 | 0.733 | 0.606 | 0.483 | 0.429 | 0.376 | 0.479 | 0.947 | 0.943 | 1.08 | 0.941 | 0.976 | 0.748 | 0.811 | 0.766 | 0.773 | 0.75
SW 1573 | 0.789 | 0.753 | 0.857 | 0.664 | 0.656 | – | 0.787 | 0.719 | 0.498 | 0.82 | 0.868 | 0.979 | 1.09 | 1.18 | 0.97 | 0.504 | 0.437 | 0.558 | 0.465 | 0.438
COR-L 105 | 0.678 | 0.644 | 0.712 | 0.469 | 0.75 | 0.844 | 0.665 | 0.699 | 0.608 | 0.633 | 0.602 | 0.733 | 0.794 | 0.86 | 0.729 | 0.635 | 0.762 | 0.752 | 0.737 | 0.64
COR-L23 | 0.583 | 0.723 | 0.683 | – | 0.644 | 0.42 | 0.349 | 0.361 | – | 0.344 | 1.14 | 1.11 | 1.1 | 1.03 | 1.03 | 0.38 | 0.314 | 0.371 | 0.328 | 0.344
NCI-H322M | 0.894 | 0.907 | 0.871 | 0.674 | 0.986 | 0.807 | 0.811 | 0.802 | 0.788 | 0.845 | 1.11 | 1.26 | 1.23 | 1.35 | 1.37 | 0.796 | 0.84 | 0.844 | 0.854 | 0.839
NCI-H2347 | 0.647 | 0.868 | 0.696 | 0.55 | 0.643 | 0.541 | 0.533 | 0.685 | 0.459 | 0.536 | 0.741 | 0.862 | 0.864 | 0.918 | 0.966 | 0.58 | 0.587 | 0.553 | 0.659 | 0.611
